The target in assay [1] is T1, WRN [UniPro: Q14191 (WRN_HUMAN), N500-C946] (Homo sapiens (Human), UniProt Q14191). Put plainly: WRN ATPase assay (ADP-Glo). Particulars: WRN enzymatic activity assay. Type of assay: biochemical. On the technique in general: ADP-Glo turns the ADP formed in a reaction into a luminescent signal.
Assay [2] concerns the target T1, WRN [UniPro: Q14191 (WRN_HUMAN), N500-C946]. Put plainly: WRN unwinding assay (FORKF DNA, fluorescence). The note with it: Table 14. Type of assay: biochemical.

What is called IC50 is the point on the concentration scale where inhibition reaches its midpoint.

T1 sequence (Q14191 500-946): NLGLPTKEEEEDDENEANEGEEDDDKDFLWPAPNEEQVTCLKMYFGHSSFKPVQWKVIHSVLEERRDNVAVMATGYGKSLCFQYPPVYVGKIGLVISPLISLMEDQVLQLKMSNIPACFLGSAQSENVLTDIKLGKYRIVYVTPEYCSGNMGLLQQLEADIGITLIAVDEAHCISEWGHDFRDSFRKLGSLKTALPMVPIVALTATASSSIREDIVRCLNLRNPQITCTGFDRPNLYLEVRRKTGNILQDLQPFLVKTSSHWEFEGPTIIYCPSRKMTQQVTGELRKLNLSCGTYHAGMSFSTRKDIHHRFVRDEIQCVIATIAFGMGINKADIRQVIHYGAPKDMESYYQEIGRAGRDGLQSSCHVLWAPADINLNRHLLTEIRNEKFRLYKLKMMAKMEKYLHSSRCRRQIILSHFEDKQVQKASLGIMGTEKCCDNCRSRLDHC

For `CCc1c(N2CCN(C(=O)CNC(=O)c3cccc(F)c3N)CC2)c(=O)n2nc(N3CCOCC3)nc2n1CC(=O)Nc1ccc(C(F)(F)F)cc1F` [Example 255, 2-Amino-N-(2-(4-(5-Ethyl-4-(2-((2-fluoro-4-(trifluoromethyl)phenyl)amino)-2-oxoethyl)-2-morpholino-7-oxo-4,7-dihydro-[1,2,4]triazolo[1,5-a]pyrimidin-6-yl)piperazin-1-yl)-2-oxoethyl)-3-fluorobenzamide], the IC50 in assay [1] and in assay [2] was below 100 nM throughout.

As to `CCc1c(N2CCN(C(=O)CNC(=O)c3cc(O)ccc3F)CC2)c(=O)n2nc(C3=CCOCC3)nc2n1CC(=O)Nc1ccc(C(F)(F)F)cc1Cl` [Example 290, N-(2-(4-(4-(2-((2-Chloro-4-(trifluoromethyl)phenyl)amino)-2-oxoethyl)-2-(3,6-dihydro-2H-pyran-4-yl)-5-ethyl-7-oxo-4,7-dihydro-[1,2,4]triazolo[1,5-a]pyrimidin-6-yl)piperazin-1-yl)-2-oxoethyl)-2-fluoro-5-hydroxybenzamide], the IC50 in assay [1] and in assay [2] was below 100 nM each time.

`CCc1c(N2CCN(C(=O)CNC(=O)c3ccccc3F)CC2)c(=O)n2nc(N3CC(F)(F)C3)nc2n1CC(=O)Nc1ccc(C(F)(F)F)cc1Cl` [Example 244, N-(2-(4-(4-(2-((2-Chloro-4-(trifluoromethyl)phenyl)amino)-2-oxoethyl)-2-(3,3-difluoroazetidin-1-yl)-5-ethyl-7-oxo-4,7-dihydro-[1,2,4]triazolo[1,5-a]pyrimidin-6-yl)piperazin-1-yl)-2-oxoethyl)-2-fluorobenzamide]: the values for the IC50 in assay [1] and in assay [2] were below 100 nM and 100 to 1000 nM, respectively.

Turning to `CCc1c(N2CCN(C(=O)c3nnccc3O)CC2)c(=O)n2nc(C3=CCOCC3)nc2n1CC(=O)Nc1ccc(C(F)(F)F)cc1Cl` [Example 82, N-(2-Chloro-4-(trifluoromethyl)phenyl)-2-(2-(3,6-dihydro-2H-pyran-4-yl)-5-ethyl-6-(4-(4-hydroxypyridazine-3-carbonyl)piperazin-1-yl)-7-oxo-[1,2,4]triazolo[1,5-a]pyrimidin-4(7H)-yl)acetamide], the concentration for half-maximal inhibition (IC50) in assay [1] and in assay [2] was below 100 nM in each case.

Take `CCc1c(N2CCN(C(=O)CNC(C)=O)CC2)c(=O)n2nc(C3=CCOCC3)nc2n1CC(=O)Nc1ccc(C(F)(F)F)cc1Cl` [Example 168, 2-(6-(4-(Acetylglycyl)piperazin-1-yl)-2-(3,6-dihydro-2H-pyran-4-yl)-5-ethyl-7-oxo-[1,2,4]triazolo[1,5-a]pyrimidin-4(7H)-yl)-N-(2-chloro-4-(trifluoromethyl)phenyl)acetamide]: the IC50 in assay [1] and in assay [2] was below 100 nM each time.

As for `CCc1c(N2CCN(C(=O)CNC(=O)N(C)Cc3ccccc3)CC2)c(=O)n2nc(C3=CCOCC3)nc2n1CC(=O)Nc1ccc(C(F)(F)F)cc1Cl` [Example 189, 2-(6-(4-((Benzyl(methyl)carbamoyl)glycyl)piperazin-1-yl)-2-(3,6-dihydro-2H-pyran-4-yl)-5-ethyl-7-oxo-[1,2,4]triazolo[1,5-a]pyrimidin-4(7H)-yl)-N-(2-chloro-4-(trifluoromethyl)phenyl)acetamide], the 50% inhibitory concentration (IC50) in assay [1] and in assay [2] was below 100 nM throughout.

With `CCc1c(N2CCN(C(=O)CNC(=O)Nc3ccccc3F)CC2)c(=O)n2nc(C3=CCOCC3)nc2n1CC(=O)Nc1ccc(C(F)(F)F)cc1Cl` [Example 180, N-(2-Chloro-4-(trifluoromethyl)phenyl)-2-(2-(3,6-dihydro-2H-pyran-4-yl)-5-ethyl-6-(4-(((2-fluorophenyl)carbamoyl)glycyl)piperazin-1-yl)-7-oxo-[1,2,4]triazolo[1,5-a]pyrimidin-4(7H)-yl)acetamide], the 50% inhibitory concentration (IC50) in assay [1] and in assay [2] was below 100 nM throughout.

With `CCc1c(N2CCN(C(=O)C(=O)Nc3nncs3)CC2)c(=O)n2nc(C3=CCOCC3)nc2n1CC(=O)Nc1ccc(C(F)(F)F)cc1F` [Example 342, 2-(4-(2-(3,6-Dihydro-2H-pyran-4-yl)-5-ethyl-4-(2-((2-fluoro-4-(trifluoromethyl)phenyl)amino)-2-oxoethyl)-7-oxo-4,7-dihydro-[1,2,4]triazolo[1,5-a]pyrimidin-6-yl)piperazin-1-yl)-2-oxo-N-(1,3,4-thiadiazol-2-yl)acetamide], the half-inhibitory concentration (IC50) in assay [1] and in assay [2] was below 100 nM each time.

As for `CCc1c(N2CCN(C(=O)c3cn(C)[nH]c3=O)CC2)c(=O)n2nc(C3=CCOCC3)nc2n1CC(=O)Nc1ccc(C(F)(F)F)cc1Cl` [Example 64, N-(2-Chloro-4-(trifluoromethyl)phenyl)-2-(2-(3,6-dihydro-2H-pyran-4-yl)-5-ethyl-6-(4-(1-methyl-3-oxo-2,3-dihydro-1H-pyrazole-4-carbonyl)piperazin-1-yl)-7-oxo-[1,2,4]triazolo[1,5-a]pyrimidin-4(7H)-yl)acetamide], the concentration for half-maximal inhibition (IC50) in assay [1] is 100 to 1000 nM; in assay [2], below 100 nM.

For the molecule `CCc1c(N2CCN(C(=O)c3nnc(Cl)cc3O)CC2)c(=O)n2nc(C3=CCOCC3)nc2n1CC(=O)Nc1ccc(C(F)(F)F)cc1Cl` [Example 83, N-(2-Chloro-4-(trifluoromethyl)phenyl)-2-(6-(4-(6-chloro-4-hydroxypyridazine-3-carbonyl)piperazin-1-yl)-2-(3,6-dihydro-2H-pyran-4-yl)-5-ethyl-7-oxo-[1,2,4]triazolo[1,5-a]pyrimidin-4(7H)-yl)acetamide], the IC50 in assay [1] and in assay [2] was below 100 nM each time.

Consider `CCc1c(N2CCN(C(=O)c3cnc4ccsc4c3O)CC2)c(=O)n2nc(C3=CCOCC3)nc2n1CC(=O)Nc1ccc(C(F)(F)F)cc1Cl` [Example 45, N-(2-Chloro-4-(trifluoromethyl)phenyl)-2-(2-(3,6-dihydro-2H-pyran-4-yl)-5-ethyl-6-(4-(7-hydroxythieno[3,2-b]pyridine-6-carbonyl)piperazin-1-yl)-7-oxo-[1,2,4]triazolo[1,5-a]pyrimidin-4(7H)-yl)acetamide], for which the IC50 in assay [1] and in assay [2] was below 100 nM each time.

Take `CCc1c(N2CCN(C(=O)c3c(O)nn4c(Cl)cccc34)CC2)c(=O)n2nc(C3=CCOCC3)nc2n1CC(=O)Nc1ccc(C(F)(F)F)cc1Cl` [Example 198, 2-(6-(4-(7-Chloro-2-hydroxypyrazolo[1,5-a]pyridine-3-carbonyl)piperazin-1-yl)-2-(3,6-dihydro-2H-pyran-4-yl)-5-ethyl-7-oxo-[1,2,4]triazolo[1,5-a]pyrimidin-4(7H)-yl)-N-(2-chloro-4-(trifluoromethyl)phenyl)acetamide]: the concentration for half-maximal inhibition (IC50) in assay [1] and in assay [2] was below 100 nM in each case.

On to `CCc1c(N2CCN(C(=O)c3c(OC)cn[nH]c3=O)CC2)c(=O)n2nc(C3=CCOCC3)nc2n1CC(=O)Nc1ccc(C(F)(F)F)cc1Cl` [Example 314, N-(2-Chloro-4-(trifluoromethyl)phenyl)-2-(2-(3,6-dihydro-2H-pyran-4-yl)-5-ethyl-6-(4-(3-hydroxy-5-methoxypyridazine-4-carbonyl)piperazin-1-yl)-7-oxo-[1,2,4]triazolo[1,5-a]pyrimidin-4(7H)-yl)acetamide], for which the IC50 is 100 to 1000 nM in assay [1] and above 1000 nM in assay [2].

Source of the values: patent US20260015358A1, “BICYCLIC DERIVATIVES, COMPOSITIONS AND USES THEREOF” (Danatlas Pharmaceuticals Co., Ltd., priority 2023, published 2026).
